Laboratory results as given in PubChem BioAssay (NCI).
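How tested: cells in 96-well plates exposed to compound for 48 hours at five concentrations. GI50: concentration for 50% inhibition of growth. Definition used: TGI = concentration required for complete inhibition of growth.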

What was measured:
Assay in all cases: NCI-60 cell line screen, 48 h
[1] = system: 786-0 renal
[2] = system: A498 renal
[3] = system: A549 NSCLC
[4] = system: ACHN renal
[5] = system: BT-549 breast
[6] = system: CAKI-1 renal
[7] = system: CCRF-CEM leukemia
[8] = system: COLO 205 colon
[9] = system: DU-145 prostate
[10] = system: EKVX NSCLC
[11] = system: HCC-2998 colon
[12] = system: HCT-116 colon
[13] = system: HCT-15 colon
[14] = system: HL-60(TB) leukemia
[15] = system: HOP-62 NSCLC
[16] = system: HOP-92 NSCLC
[17] = system: HS 578T breast
[18] = system: HT29 colon
[19] = system: IGROV1 ovarian
[20] = system: K-562 leukemia
[21] = system: KM12 colon
[22] = system: LOX IMVI melanoma
[23] = system: M14 melanoma
[24] = system: MALME-3M melanoma
[25] = system: MCF7 breast
[26] = system: MDA-MB-231 breast
[27] = system: MDA-MB-435
[28] = system: MDA-MB-468 breast
[29] = system: MOLT-4 leukemia
[30] = system: NCI-H226 lung
[31] = system: NCI-H23 lung
[32] = system: NCI-H460 lung
[33] = system: NCI-H522 lung
[34] = system: OVCAR-3 ovarian
[35] = system: OVCAR-4 ovarian
[36] = system: OVCAR-5 ovarian
[37] = system: OVCAR-8 ovarian
[38] = system: PC-3 prostate
[39] = system: RPMI-8226 leukemia
[40] = system: RXF 393 renal
[41] = system: SF-268 CNS
[42] = system: SF-295 CNS
[43] = system: SF-539 CNS
[44] = system: SK-MEL-2 melanoma
[45] = system: SK-MEL-28 melanoma
[46] = system: SK-MEL-5 melanoma
[47] = system: SK-OV-3 ovarian
[48] = system: SN12C renal
[49] = system: SNB-19 CNS
[50] = system: SR leukemia
[51] = system: SW-620 colon
[52] = system: T-47D breast
[53] = system: TK-10 renal
[54] = system: U251 CNS
[55] = system: UACC-257 melanoma
[56] = system: UACC-62 melanoma
[57] = system: UO-31 renal

## Clc1ccccc1Nc1nnc(-c2c[nH]c3ccccc23)o1
[1]
  GI50: 9.52 µM
  TGI: 28.1 µM
[2]
  GI50: 18.8 µM
  TGI: 50.8 µM
[3]
  GI50: 1.73 µM
  TGI: > 100 µM
[4]
  GI50: 1.49 µM
  TGI: 37.5 µM
[5]
  GI50: 2.27 µM
  TGI: 34.6 µM
[6]
  GI50: 0.647 µM
  TGI: 33.2 µM
[7]
  GI50: 0.501 µM
  TGI: 26.5 µM
[8]
  GI50: 0.867 µM
  TGI: 11.7 µM
[9]
  GI50: 2.78 µM
  TGI: 56.9 µM
[10]
  GI50: 3.05 µM
  TGI: 77.7 µM
[11]
  GI50: 1.85 µM
  TGI: 14.2 µM
[12]
  GI50: 11.9 µM
  TGI: 77.6 µM
[13]
  GI50: 0.35 µM
  TGI: 23.9 µM
[14]
  GI50: 0.321 µM
  TGI: 4.56 µM
[15]
  GI50: 4.58 µM
  TGI: 63.5 µM
[16]
  GI50: 11.5 µM
  TGI: 54.6 µM
[17]
  GI50: 1.52 µM
  TGI: 20.6 µM
[18]
  GI50: 0.353 µM
  TGI: 10.3 µM
[19]
  GI50: 0.429 µM
  TGI: 33.5 µM
[20]
  GI50: 0.308 µM
  TGI: > 100 µM
[21]
  GI50: 1.57 µM
  TGI: 28.7 µM
[22]
  GI50: 0.618 µM
  TGI: 19.8 µM
[23]
  GI50: 0.71 µM
  TGI: 20.2 µM
[24]
  GI50: 0.498 µM
  TGI: 20.1 µM
[25]
  GI50: 0.583 µM
  TGI: 21.6 µM
[26]
  GI50: 2.18 µM
  TGI: 23.5 µM
[27]
  GI50: 0.233 µM
  TGI: 0.778 µM
[28]
  GI50: 1.2 µM
  TGI: 4.9 µM
[29]
  GI50: 0.654 µM
  TGI: 23.2 µM
[30]
  GI50: 5.39 µM
  TGI: > 100 µM
[31]
  GI50: 2 µM
  TGI: 17.1 µM
[32]
  GI50: 0.787 µM
  TGI: 15.2 µM
[33]
  GI50: 0.305 µM
  TGI: 2.38 µM
[34]
  GI50: 0.43 µM
  TGI: 15 µM
[35]
  GI50: 22.7 µM
  TGI: > 100 µM
[36]
  GI50: 4.33 µM
  TGI: 31.9 µM
[37]
  GI50: 1.6 µM
  TGI: 18.1 µM
[38]
  GI50: 1.9 µM
  TGI: 57.6 µM
[39]
  GI50: 1.31 µM
  TGI: > 100 µM
[40]
  GI50: 1.52 µM
  TGI: 11.1 µM
[41]
  GI50: 6.89 µM
  TGI: 51.7 µM
[42]
  GI50: 0.316 µM
  TGI: 10.2 µM
[43]
  GI50: 0.708 µM
  TGI: 3.24 µM
[44]
  GI50: 0.318 µM
  TGI: 1.06 µM
[45]
  GI50: 10.4 µM
  TGI: 27.3 µM
[46]
  GI50: 0.966 µM
  TGI: 7.39 µM
[47]
  GI50: 3.68 µM
  TGI: 74.9 µM
[48]
  GI50: 0.93 µM
  TGI: 21.7 µM
[49]
  GI50: 0.721 µM
  TGI: 31.5 µM
[50]
  GI50: 0.387 µM
  TGI: > 100 µM
[51]
  GI50: 0.479 µM
  TGI: 29.1 µM
[52]
  GI50: 4.1 µM
  TGI: > 100 µM
[53]
  GI50: 8.09 µM
  TGI: > 100 µM
[54]
  GI50: 0.505 µM
  TGI: 17.5 µM
[55]
  GI50: 14.1 µM
  TGI: 88.7 µM
[56]
  GI50: 0.402 µM
  TGI: 17.1 µM
[57]
  GI50: 1.82 µM
  TGI: 49.7 µM
